The results in this text go back to patent US20060293241A1, “Pharmaceutical composition comprising a factor VII polypeptide and epsilon-aminocaproic acid” (Novo Nordisk HealthCare A/G, priority 2001, published 2006).

Assay [1] has as its system Normal human plasma diluted 10-fold. The assay is described as follows: Clot lysis assay (Example 1), turbidity at 650 nm. Type of assay: biochemical. The settings on record: in the presence of 10 nM FVIIa; t-PA 8 nM. The protocol: Clot lysis assay: Normal human plasma diluted 10-fold with buffer (20 mM HEPES, 150 mM NaCl, 5 mM CaCl, pH 7.4) containing Innovin (Dade Behring, 2000-fold dilution), rFVIIa (Novo Nordisk A/S Bagsvaerd, Denmark, various concentrations) and t-PA (American Diagnostica, 8 nM) was added to 96-well ELISA plates and turbidity at 650 nm was measured over time at room temperature. Where indicated, epsilon-Aminocaproic Acid (Sigma, various concentrations) was included.

The test system of assay [2] is Normal human plasma (NHP). The assay is described as follows: Clot lysis assay (Example 2), clot survival in NHP and NHP diluted 1:2 with plasma expander. Type of assay: biochemical. To be noted: in combination with 40 nM FVIIa. The protocol: Clot lysis assay: Normal human plasma (NHP) and NHP diluted 1:2 with plasma expander Macrodex or HES 200/0.5 used clinically for maintaining blood pressure under surgical procedures was mixed with lipidated recombinant TF (Innovin 1:60,000), CaCl2 10 mM, +/−FVIIa 40 nM, phosfatidylcolin/phosphateidylserine vesicles 6 μM, tPA […] and +/−the indicated doses of e-aminocaproic acid (EACA). Clot survival was measured as the time for clot start until the time for clot lysis.

Take `NCCCCCC(=O)O` [EACA, epsilon-aminocaproic acid]: in assay [1], the “effect on clot lysis time” value is given as “further prolongation of the clot lysis time” and the “epsilon-Aminocaproic Acid concentration at which effect on clot lysis time was optimal” value came out at 1 µM. Besides, the “effect on clot survival time” value in assay [2] is on record as “increase in clot survival time”.
